Holding throughout (assay type): in vivo
One assay concerns rice (Oryra sativa). In words: Test B flooded paddy test. The following applies: Oryza sativa, 250 g ai/ha, Flood, read-out: Rice plant response rating. Summed up: (§1)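 Plants at 2-leaf stage flooded to 3 cm above soil, with compounds applied directly to paddy water and that depth maintained. Plants kept in greenhouse 13–15 d. Visual rating versus controls on a 0 (no effect) to 100 (complete control) scale.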

In assay [1] the test system is barnyardgrass (Echinochloa crus-galli). The assay can be described thus: Test B flooded paddy test. The settings on record: Echinochloa crus-galli, 250 g ai/ha, Flood, read-out: Barnyardgrass plant response rating. Summed up: as §1
Assay [2] concerns ducksalad (Heteranthera limosa). The assay can be described thus: Test B flooded paddy test. The settings on record: Heteranthera limosa, 250 g ai/ha, Flood, read-out: Ducksalad plant response rating. In outline:
as §1

The test system of assay [3] is sedge, umbrella (small-flower umbrella sedge, Cyperus difformis). In words: Test B flooded paddy test. The following applies: Cyperus difformis, 250 g ai/ha, Flood, read-out: Sedge, Umbrella plant response rating. Summed up:
as §1

The subject of assay [4] is blackgrass (Alopecurus myosuroides). The assay can be described thus: Test A postemergence. The settings on record: Alopecurus myosuroides, post-emergence, 240 h; for pest or weed control at 125 g/ha: 125 g ai/ha; for pest or weed control at 500 g/ha: 500 g ai/ha. Summed up:
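Greenhouse, ~10 d after spray; visual injury vs untreated controls, 0 = no effect, 100 = complete control. Preemergence: directed soil spray over planted seeds. Postemergence: plants 2–10 cm, 1–2 leaf stage. Loam/sand blend. Compound in non-phytotoxic solvent with surfactant.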

[5] abbreviates: 0 to 100 scale where 0 is no effect and 100 is complete control.
[6] abbreviates: postemergence, visual injury on 0 to 100 scale (0 no effect, 100 complete control), approx. 10 d, read-out: Blackgrass plant response rating.
[7] abbreviates: postemergence, 0 to 100 scale, 0 is no effect, 100 is complete control, read-out: Blackgrass plant response rating.
Where [8] appears, read: postemergence, visual injury, 0 to 100 scale (0 no effect, 100 complete control), approx. 10 d, read-out: Plant response rating, Blackgrass.
The mark [9] stands for this setting: scale of 0 to 100 where 0 is no effect and 100 is complete control.
The mark [10] stands for this setting: postemergence, visual injury rating after approximately 10 d, read-out: Blackgrass plant response rating (0 to 100 scale, 0 no effect, 100 complete control).
[11] abbreviates: Postemergence, visual injury after approximately 10 d, 0 to 100 scale where 0 is no effect and 100 is complete control, read-out: Plant response rating, Blackgrass.
Where [12] appears, read: postemergence, visual injury vs untreated controls after approx. 10 d, 0 = no effect, 100 = complete control, read-out: Blackgrass plant response rating (0 to 100 scale).

Where two headings read alike, the source gives them in different places.

Results on 20 compounds are retold here after patent publication US12077503B2, “Substituted cyclic amides and their use as herbicides” (FMC CORPORATION, priority 2015, dated 2024).

In the case of `O=C1NC[C@H](c2cc(C(F)F)cs2)[C@H]1C(=O)Nc1cccc(F)c1F` [Compound 1117], the pest or weed control at 250 g/ha in the assay on rice (Oryra sativa) (setting [5]) is 20%; in assay [1] (setting [5]), 60%; in assay [2] (setting [5]) it was 100%; in assay [3] (setting [5]), 0%. In assay [4] (setting [6]), the pest or weed control at 125 g/ha is 0%. Besides, the pest or weed control at 500 g/ha in assay [4] (setting [7]) was determined as 40%.

Consider `Cc1cc([C@H]2CNC(=O)[C@@H]2C(=O)Nc2ccccc2S(C)(=O)=O)ccc1C(F)(F)F` [Compound 1041], for which the pest or weed control at 250 g/ha was determined as 0% in the assay with rice (Oryra sativa) (setting [5]), 0% in assay [1] (setting [5]), 100% in assay [2] (setting [5]) and 0% in assay [3] (setting [5]). Further, the pest or weed control at 125 g/ha in assay [4] (setting [6]) worked out at 0%. Also, the pest or weed control at 500 g/ha in assay [4] (setting [8]) was found to be 40%.

On to `COc1ccc([C@H]2CN(C)C(=O)[C@@H]2C(=O)Nc2ccccc2SC)cc1OC` [Compound 854], for which the pest or weed control at 250 g/ha (in the assay on rice (Oryra sativa) (setting [9]); in assay [1] (setting [9]); in assay [2] (setting [9]); in assay [3] (setting [9])) was 0% each time. Besides, the pest or weed control at 125 g/ha in assay [4] (setting [10]) was 0%.

Turning to `CN1CC[C@H](c2cccc(Cl)c2)[C@@H](C(=O)Nc2cccc(F)c2F)C1=O` [Compound 921], the pest or weed control at 250 g/ha is 20% with rice (Oryra sativa) (setting [9]), 85% in assay [1] (setting [9]), 90% in assay [2] (setting [9]) and 0% in assay [3] (setting [9]). Besides, the pest or weed control at 125 g/ha in assay [4] (setting [11]) was 20%.

For `CN1C[C@H](c2cc(F)cc(F)c2)[C@@H](C(=O)Nc2ccccc2[S@+](C)[O-])C1=O` [Compound 871], the pest or weed control at 250 g/ha (in the assay on rice (Oryra sativa) (setting [9]); in assay [1] (setting [9]); in assay [2] (setting [9]); in assay [3] (setting [9])) was 0% each time. Besides, the pest or weed control at 125 g/ha in assay [4] (setting [10]) was determined as 0%.

In the case of `O=C1NC[C@H](c2cscn2)[C@H]1C(=O)Nc1cccc(F)c1F` [Compound 1111], the pest or weed control at 250 g/ha in the assay with rice (Oryra sativa) (setting [5]) worked out at 0%; in assay [1] (setting [5]), 20%; in assay [2] (setting [5]) it was 70%; in assay [3] (setting [5]), 0%. Besides, the pest or weed control at 125 g/ha in assay [4] (setting [6]) turned out to be 0%. The pest or weed control at 500 g/ha in assay [4] (setting [7]) worked out at 0%.

As to `O=C(Nc1ccccc1F)[C@H]1C(=O)N(C2CC2)CC[C@@H]1c1ccccc1` [Compound 1031], the pest or weed control at 250 g/ha (in the assay with rice (Oryra sativa) (setting [5]); in assay [1] (setting [5]); in assay [2] (setting [5]); in assay [3] (setting [5])) was 0% throughout. In addition, the pest or weed control at 125 g/ha in assay [4] (setting [11]) is 0%. Moreover, the pest or weed control at 500 g/ha in assay [4] (setting [8]) was 0%.

`CC(C)c1cccc([C@H]2CN(C)C(=O)[C@@H]2C(=O)Nc2ccccc2F)c1` [Compound 819]: the pest or weed control at 250 g/ha is 0% in the assay with rice (Oryra sativa) (setting [9]), 65% in assay [1] (setting [9]), 100% in assay [2] (setting [9]) and 0% in assay [3] (setting [9]). For the same compound, the pest or weed control at 125 g/ha in assay [4] (setting [10]) was 60%.

In the case of `Cc1cc([C@H]2CN(C)C(=O)[C@@H]2C(=O)Nc2ccccc2F)ccc1Br` [Compound 1098], the pest or weed control at 250 g/ha in the assay with rice (Oryra sativa) (setting [5]) came to 0%; in assay [1] (setting [5]), 0%; in assay [2] (setting [5]) it was 90%; in assay [3] (setting [5]), 0%. Besides, the pest or weed control at 125 g/ha in assay [4] (setting [6]) worked out at 20%. Moreover, the pest or weed control at 500 g/ha in assay [4] (setting [7]) stood at 30%.

Regarding `CC(C)Oc1ccc([C@H]2CNC(=O)[C@@H]2C(=O)Nc2cccc(F)c2F)cc1` [Compound 1136], the pest or weed control at 250 g/ha is 0% with rice (Oryra sativa) (setting [5]), 0% in assay [1] (setting [5]), 85% in assay [2] (setting [5]) and 0% in assay [3] (setting [5]). The pest or weed control at 125 g/ha in assay [4] (setting [6]) was 0%. Moreover, the pest or weed control at 500 g/ha in assay [4] (setting [7]) is 30%.

With `Cc1cc([C@H]2CN(C)C(=O)[C@@H]2C(=O)Nc2ccccc2F)ccc1Cl` [Compound 928], the pest or weed control at 250 g/ha with rice (Oryra sativa) (setting [9]) amounted to 0%; in assay [1] (setting [9]), 55%; in assay [2] (setting [9]) it was 80%; in assay [3] (setting [9]), 0%. Further, the pest or weed control at 125 g/ha in assay [4] (setting [11]) stood at 30%.

With `CON1CC[C@H](c2ccc(F)cc2)[C@@H](C(=O)Nc2cccc(F)c2F)C1=O` [Compound 918], the pest or weed control at 250 g/ha in the assay on rice (Oryra sativa) (setting [9]) turned out to be 15%; in assay [1] (setting [9]) it was 0%; in assay [2] (setting [9]) it was 30%; in assay [3] (setting [9]), 0%. The pest or weed control at 125 g/ha in assay [4] (setting [11]) worked out at 40%.

As for `CSc1ccccc1NC(=O)[C@H]1C(=O)N(C)C[C@@H]1c1cc(F)c(F)c(F)c1` [Compound 866], the pest or weed control at 250 g/ha in the assay on rice (Oryra sativa) (setting [9]) turned out to be 35%; in assay [1] (setting [9]) it was 35%; in assay [2] (setting [9]) it was 90%; in assay [3] (setting [9]), 35%. Also, the pest or weed control at 125 g/ha in assay [4] (setting [10]) stood at 0%.

As for `CN1C[C@H](c2cc(F)c(C(F)(F)F)c(F)c2)[C@@H](C(=O)Nc2ccccc2S(C)(=O)=O)C1=O` [Compound 900], the pest or weed control at 250 g/ha in the assay on rice (Oryra sativa) (setting [9]) worked out at 0%; in assay [1] (setting [9]), 70%; in assay [2] (setting [9]), 40%; in assay [3] (setting [9]), 0%. In assay [4] (setting [10]), the pest or weed control at 125 g/ha is 40%.

For the compound `CCc1ccc([C@H]2CNC(=O)[C@@H]2C(=O)Nc2ccccc2SC)cc1` [Compound 1178], the pest or weed control at 250 g/ha in the assay with rice (Oryra sativa) (setting [5]) amounted to 20%; in assay [1] (setting [5]), 20%; in assay [2] (setting [5]), 90%; in assay [3] (setting [5]), 0%. Moreover, in assay [4] (setting [12]), the pest or weed control at 125 g/ha was determined as 0%. The pest or weed control at 500 g/ha in assay [4] (setting [7]) came out at 20%.

Turning to `Cc1cc(F)cc([C@H]2CN(C)C(=O)[C@@H]2C(=O)Nc2cccc(F)c2F)c1` [Compound 849], the pest or weed control at 250 g/ha in the assay on rice (Oryra sativa) (setting [9]) turned out to be 15%; in assay [1] (setting [9]) it was 75%; in assay [2] (setting [9]) it was 100%; in assay [3] (setting [9]), 0%. In addition, the pest or weed control at 125 g/ha in assay [4] (setting [10]) stood at 30%.

In the case of `COc1ccccc1NC(=O)[C@H]1C(=O)N(C)C[C@@H]1c1ccc(C(F)(F)F)cc1` [Compound 843], the pest or weed control at 250 g/ha in the assay with rice (Oryra sativa) (setting [9]) worked out at 0%; in assay [1] (setting [9]), 0%; in assay [2] (setting [9]) it was 20%; in assay [3] (setting [9]) it was 0%. In assay [4] (setting [10]), the pest or weed control at 125 g/ha worked out at 0%.

As for `CCc1cc(CC)cc([C@H]2CNC(=O)[C@@H]2C(=O)Nc2ccccc2F)c1` [Compound 1138], the pest or weed control at 250 g/ha in the assay with rice (Oryra sativa) (setting [5]) came to 0%; in assay [1] (setting [5]) it was 60%; in assay [2] (setting [5]) it was 75%; in assay [3] (setting [5]), 0%. Further, in assay [4] (setting [6]), the pest or weed control at 125 g/ha was 30%. Moreover, in assay [4] (setting [7]), the pest or weed control at 500 g/ha amounted to 60%.

On to `CCc1ccc([C@H]2CNC(=O)[C@@H]2C(=O)Nc2cccc(F)c2C)cc1` [Compound 1177], for which the pest or weed control at 250 g/ha in the assay with rice (Oryra sativa) (setting [5]) turned out to be 20%; in assay [1] (setting [5]) it was 70%; in assay [2] (setting [5]), 95%; in assay [3] (setting [5]), 0%. Further, the pest or weed control at 125 g/ha in assay [4] (setting [12]) was 60%. The pest or weed control at 500 g/ha in assay [4] (setting [7]) is 70%.

`Cc1cc([C@H]2CNC(=O)[C@@H]2C(=O)Nc2cccc(F)c2F)ccc1C(F)(F)F` [Compound 1040]: the pest or weed control at 250 g/ha in the assay with rice (Oryra sativa) (setting [5]) is 0%; in assay [1] (setting [5]), 60%; in assay [2] (setting [5]), 75%; in assay [3] (setting [5]) it was 0%. Also, in assay [4] (setting [11]), the pest or weed control at 125 g/ha was 60%. In addition, in assay [4] (setting [8]), the pest or weed control at 500 g/ha is 70%.
